Source: patent publication US5891916A, “Aromatic hydroxamix acid compounds, their production and use” (Takeda Chemical Industries, Ltd., priority 1995, dated 1999)

system: rats pretreated with LPS infused into the unilateral striatum; assay: Inhibitory effect on the apomorphine-induced circling behavior in rats pretreated with LPS infused into the unilateral striatum; type: in vivo, rat; settings: male Wistar rats; i.p. 0.2 ml per 100 g, 30 minutes before LPS infusion and 3 and 24 hours after; apomorphine 1 mg/kg s.c. 7-8 days postoperatively; 30-minute count
Experimental: Inhibitory effect on the apomorphine -induced circling behavior in rats pretreated with LPS infused into the unilateral striatum Male Wistar rats (8-9 week old) weighing 250-280 g at the operation for LPS infusion were submitted to this experiment.. Throughout the experimental period, the animals were group-fed in a vivarium controlled at 24±1° C. and 55±1% R.H., with a light-dark cycle of 12 hr (7:00-19:00 ON) and free access to food (Clea Japan, Inc., CE-2 solid pellets) and water (tap water). Under pentobarbital (50 mg/kg, i.p.) anesthesia, the rat's head was immobilized in David Kopf's brain stereotaxic apparatus for small animal use and with reference to Pellegrino & Cushman's brain atlas, a 30 Gauge stainless steel needle was indwelled in the unilateral striatum (A8.2, L2.8, H4.3). The infusion volume of LPS was set at 5 μg. LPS was dissolved in 1 μl of a phosphate-buffered physiological saline solution (PBS, pH 7.2) and the solution was infused gradually at a speed of 0.2 μl/min. The infusion needle was kept in position till 3 minutes following infusion and withdrawn only after sufficient diffusion of the drug solution had taken place. After 7-8 days postoperatively, 1 mg/kg of apomorphine was administered subcutaneously and the number of induced circling behavior during a 30-minute period immediately following administration were determined with an automatic counter. […]

Row | Structure (SMILES) | number of induced circling behavior relative to control group [%]
1 | N#CC(CCCCCC(=O)NO)(c1ccccc1)c1ccccc1 [Compound 1, 7-Cyano-7,7-diphenylheptanohydroxamic acid] | 41

system: rat mixed cerebral cell culture; assay: Neutralizing effect on lipopolysaccharide (LPS)-induced cytotoxicity in a rat mixed cerebral cell culture system (LIC assay); type: cell-based; settings: neonatal rat mixed cerebral cells, 4 to 5 days incubation, MTT, concentration giving 50% recovery rate, read-out: ED50 value
Experimental: Neutralizing effect on lipopolysaccharide (LPS)--induced cytotoxicity in a rat mixed cerebral cell culture system (LIC assay)
LPS, a substance known to activate glial cells (astrocytes, microglia), was added to a rat mixed cerebral cell culture system and the compounds which would neutralize the cytotoxicity induced by LPS were screened by the following method.
(1) Neonatal rat mixed cerebral cell culture
From neonatal Crj:CD (SD) rats (1-3 day old, Charles-River Japan, Ltd), the brains were isolated and placed in ice-cooled D-MEM/10% FCS (Dulbecco's cell culture minimal essential medium supplemented with 10% of fetal calf serum, 100 units/ml of penicillin and 100 gg/ml of streptomycin). Then, mixed cerebral cell culture were treated in the following steps. Incidentally stating, ice-cooled D-MEM/10%FCS was used as the medium.
1. The cerebrum was separated from the enucleated brain and the meninges was removed under a stereoscopic microscope.
2. The cerebrums were placed in a nylon-mesh (100-200 μm) bag for filtration with the aid of a rubber policeman.
3. Using ice-cooled D-MEM/10% FCS, the cells were washed three times (1,000 rpm, 8 min.). Then, this cell suspension was subjected to filtration through a cell strainer (40 μm mesh, Falcon 2340) and the number of viable cells was counted by the trypan blue method.
4. The cells were seeded in a tissue-culture flask (96-well microtiter plate, Nunc) at a cell density of 1×10^5 cells/100 μl/well).
5. One week later, 100 μl/well of D-MEM/10% FCS was added.
6. The plate was further incubated for about 1 to 2 weeks and the neutralizing activity of the test compounds was evaluated by the following method.
(2) Evaluation of neutralizing activity
1. Following the rat mixed cerebral cell culture in (1) above (after 2-3 weeks of incubation), the medium was discarded from the respective wells of the 96-well microtiter plate, and 50 μl/well of fresh D-MEM/2% FCS was added.
2. A test sample and LPS (manufactured by Difco Inc., E. coli 011: B4, Bact) of an adequate concentration, 25 μl per well, were respectively added. D-MEM/2% FCS was employed as the medium.
As the test sample, each of the compounds shown in Table 21 was dissolved in DMSO at a concentration of 10^-2 M and the solution was diluted with D-MEM/2% FCS, which was used for assay.
3. After a suitable period (usually 4 to 5 days) of incubation, the degree of cytotoxic effect was assessed by the microscopic observation, and MTT method.
(3) MTT [3-(4,5-dimethylthiazol-2-yl)-2,5-diphenyltetrazolium bromide] method
MTT dissolved in a phosphate-buffered physiological saline solution (5 mg/ml, manufactured by Sigma Chemical Co.,) was added, 10 μl per well. After 4 to 6 hours of incubation (37° C., under 10% carbon dioxide gas phase), 100 μl/well of 0.01N HCl containing 10% SDS was added to thereby dissolve the formed formazan. After complete dissolution, the absorbance (wave-length 540-590 nm) was measure for each well.
The ED50 values were determined by calculating the recovery rates by means of the following equation and plotting the concentrations of compounds giving a recovery rate of 50% on graph paper.
Recovery rate (%)=(C-B)×100/(A-B)
[A: the absorbance at 550 nm of the control well to which only the medium had been was added
B: the absorbance at 550 nm of the well to which LPS had been added
C: the absorbance at 550 nm of the well to which both LPS and the test compound had been added]

Row | Structure (SMILES) | EC50 [µM]
2 | N#CC(CCCCCC(=O)NO)(c1ccccc1)c1ccccc1 [Compound 1, 7-Cyano-7,7-diphenylheptanohydroxamic acid] | 0.01
3 | N#CC(CCCCCC(=O)NO)(c1ccccc1)c1ccc(F)cc1 (stereo not drawn) [Compound 3, 7-cyano-7-(4-fluorophenyl)-7-phenylheptanohydroxamic acid] | 0.01
4 | COc1ccccc1C(C#N)(CCCCCC(=O)NO)c1ccccc1 (stereo not drawn) [Compound 4, 7-cyano-7-(2-methoxyphenyl)-7-phenylheptanohydroxamic acid] | 0.01
5 | N#CC(CCCCCC(=O)NO)(c1ccccc1)c1nc2ccccc2s1 (stereo not drawn) [Compound 11, 7-(2-benzothiazolyl)-7-cyano-7-phenylheptanohydroxamic acid] | 0.01
6 | N#CC(CCCCCC(=O)NO)(c1ccccc1)c1ccc2ccccc2n1 (stereo not drawn) [Compound 12, 7-cyano-7-phenyl-7-(2-quinolyl)heptanohydroxamic acid] | 0.01
7 | CCC(=O)ONC(=O)CCCCCC(C#N)(c1ccccc1)c1ccccc1 [Compound 13, O-Propionyl-7-cyano-7,7-diphenylheptanohydroxamic acid] | 0.01
8 | CCC(=O)ONC(=O)CCCCCC(C#N)(c1ccccc1)c1ccc2ccccc2n1 (stereo not drawn) [Compound 20, O-propionyl-7-cyano-7-phenyl-7-(2-quinolyl)heptanohydroxamic acid] | 0.01
9 | N#CC(CCCCCC(=O)NOC(=O)c1ccccc1)(c1ccccc1)c1ccc2ccccc2n1 (stereo not drawn) [Compound 21, O-benzoyl-7-cyano-7-phenyl-7-(2-quinolyl)heptanohydroxamic acid] | 0.01
